Laboratory results taken from US6413967B1, “Inhibition of novel calcium entry pathway in electrically non-excitable cells acting as an anti-proliferative therapy” (The University of Virginia Patents Foundation, priority 1995, dated 2002).

Key:
[1] = system: [Ca^2+]i in Jurkat T cells; assay: receptor-stimulated Ca2+ influx in Jurkat T cells (anti-CD3 mAb OKT3); type: cell-based, human; details: effect the same post- and pre- T cell receptor stimulation; 10 or 30 μM drug
Method: Initially, all drugs are screened using Jurkat T cells incubated with indo-1/AM as outlined below. In the event that there is an effect of the drug on the maximum [Ca^2+]i reached following treatment of the cells with the anti-CD3 mAb […], the drug is evaluated for any effects on the spectral characteristics of indo-1 as outlined in Haverstick and Gray, Mol. Biol. Cell (1993) 4:173. If there is an effect of the drug on the spectral characteristics of indo-1 , the drug is further examined for spectral effects on the combination of fura-red and fluo-3. If there is no effect of the drug on the fura-red/fluo-3 combination, the drug is examined for effects on the maximum [Ca^2+]i reached following OKT3 treatment of cells incubated with 5 μM fura-red and […] as outlined below.
Jurkat cells are incubated in RPMI-1640 plus 5% fbs in the presence of the acetoxymethyl ester of either indo-1 (1 μM) or the combination of fura-red (5 μM) with fluo-3 (1 μM) for one hour at 37° C. Cells are washed three times in buffer A [[…] 4-(2-hydroxyethyl)-1-piperazine ethanesulfonic acid (HEPES), pH 7.4, 3 MM KCl, 1 mM MgCl2, 1 mM CaCl2, 140 mM NaCl, 0.1% glucose] containing 1% fbs and suspended to a final concentration of 1×10^6/ml. Cells are then placed in the 37° C. jacketed cell holder of the SLM 8000C. Antigen receptor engagement is mimicked by the addition of the anti-CD3 monoclonal antibody OKT3 (Gray et al, J. Exp. Med. (1988) 167:1963; Gray et al, J. Immunol. 142:1631). The effect of drug added prior to receptor stimulation or at the plateau phase of Ca^2+ entry is determined as follows:
Prior drug: 10 or 30 μM drug @ 30 seconds, 1 μg/ml OKT3 at 90 seconds
Post drug: 1 μg/ml OKT3 at 30 second, 10 or 30 μM drug @ 120 seconds

[2] = system: MDA-468 human breast cancer cells; assay: MDA-468 cell proliferation, tetrazolium dye; type: cell-based; details: human breast cancer cell proliferation, 48 hours
Method: The effect of various drugs on the proliferation of Jurkat T cells, MDA-468 human breast cancer cells and PC3 human prostate cancer cells was determined by incubating the cells with the indicated concentrations of drug for 48 hours. The number of viable cells remaining at the end of the incubation period was evaluated using the procedure outlined in Example 4.
Cells are plated in triplicate in a 96-well flat-bottomed plate (Jurkat: 5e4 cells/well in RPMI-1640 plus 5% fbs; MDA468: 2.5e4 per well in DMEM plus 5% fbs and 11 μg/ml insulin) in the absence (control) or presence of drug at 3, 10, 30, and 100 μM. An additional control of 100 μM drug in RPMI-1640 plus 5% fbs or DMEM plus 5% fbs and 11 μg/Ml insulin with no cells is included with each run to control for possible drug interactions with the dye. The plate is then placed in a 5% CO2 37° C. incubator for 44 to 48 hours. 20 μl of dye solution containing a tetrazolium dye (3-(4,5-dimethylthiazol-2-yl)-5-(3-carboxymethoxyphenyl)-2-(4-sulfophenyl)-2H-tetrazolium, Owen's reagent) plus coupling reagent (phenazine methosulfate) is added to each well, the plate is returned to the incubator, and the absorbance at 490 nm is read using an ELISA plate reader 3 to 4 h (Jurkat cells) or 2 to 3 h (MDA-468 cells) later. All data are presented as percent of control (no drug addition). With this protocol, it is possible to determine the effect of 5 drugs at 4 concentrations in a single 96-well plate as outlined below: […]

[3] = system: Ca^2+ entry pathway in Jurkat cells; assay: thapsigargin-stimulated Ca2+ entry measured with Ca2+-sensitive dyes (indo-1, fluo-3); type: cell-based, human
Method: Lymphocytes were suspended in culture medium at 37° C. for 1 h in the presence of 1 μM of the Ca^2+ indicator dye indo-1 /AM. Cells were washed twice in buffer A (140 mM NaCl, 3 mM KCl, 1 mM CaCl2, 1 mM MgCl2, 0.1% D-glucose, 1% FBS, 10 mM HEPES, pH 7.4) and were suspended at a final concentration of 1×10^6 cells/ml in buffer A. The excitation wavelength was 340 nm and emission was monitored at 398 nm in an SLM 8000 spectrofluorometer (SLM/Aminco, Urbana, Ill.), with the temperature maintained at 37° C. Data are plotted as relative fluorescence intensity at 398 nm as a measure of [Ca^2+]i. For FIG. 7, indo-1 emission was monitored at 398 nm and 480 nm and [Ca^2+]i was determined as described previously (Gray et al, J. Immunol (1987) 138:63; Haverstick et al, Mol. Biol. Cell (1993) 4:173).
Jurkat cells were loaded with indo-1/AM as described above. The excitation wavelength was 340 nm and emission was measured at 441 nm. The fluorescence of indo-1 at 441 nm is insensitive to changes in [Ca^2+]i (Sage et al, Biochem. J. (1989) 258:923) and is plotted as relative fluorescence intensity.
Because amiloride interferes with the fluorescence of indo-1 (Wacholtz et al, J. Immunol. (1992) 149:1912), fluo-3 was used to monitor [Ca^2+]i in the presence of amiloride. Jurkat cells were suspended in culture medium at 37° C. for 1 h in the presence of 1 μM fluo-3/AM and 1 mM probenecid to decrease dye leakage (DiVirgilio et al, Methods Cell Biol. (1989) 31:453). After two washes in buffer A, cells were suspended at a concentration of 1×10^6 cells/ml in buffer A with 1 mM probenecid and were maintained in a cuvette at 37° C. The excitation wavelength was 506 nm and the emission was monitored at 526 nm. Data are presented sa relative fluorescence intensity at 526 nm.

IC50 ([3]; Homo sapiens, indo-1, n=10, read-out: IC50 for blockade of thapsigargin-stimulated Ca^2+ entry): 5 µM
SMILES: CC(Cc1ccc(O)c(O)c1)C(C)Cc1ccc(O)c(O)c1 (stereo not shown) [NDGA, 4,4′-(2,3-dimethyl-1,4-butanediyl)bis[1,2-benzenediol]]
T cell [Ca^2+]i [1]: ↓
MDA PROLIF [2]: ↓
effect on thapsigargin-stimulated Ca^2+ entry ([3]; 300 nM thapsigargin, amiloride 100 μM (fluo-3), Ni^2+ 1 mM, NDGA 10 μM (indo-1)): inhibited Ca^2+ entry
